What was measured:
Recombinant mouse FAP = target: T1, Recombinant mouse FAP (Mus musculus, UniProt P97321); assay: FRET-based FAP protease activity assay (mouse); format: biochemical; conditions: FRET-peptide substrate, 37°C
T1 construct: purchased R&D systems 8647-SE
T1 sequence (P97321 1-761): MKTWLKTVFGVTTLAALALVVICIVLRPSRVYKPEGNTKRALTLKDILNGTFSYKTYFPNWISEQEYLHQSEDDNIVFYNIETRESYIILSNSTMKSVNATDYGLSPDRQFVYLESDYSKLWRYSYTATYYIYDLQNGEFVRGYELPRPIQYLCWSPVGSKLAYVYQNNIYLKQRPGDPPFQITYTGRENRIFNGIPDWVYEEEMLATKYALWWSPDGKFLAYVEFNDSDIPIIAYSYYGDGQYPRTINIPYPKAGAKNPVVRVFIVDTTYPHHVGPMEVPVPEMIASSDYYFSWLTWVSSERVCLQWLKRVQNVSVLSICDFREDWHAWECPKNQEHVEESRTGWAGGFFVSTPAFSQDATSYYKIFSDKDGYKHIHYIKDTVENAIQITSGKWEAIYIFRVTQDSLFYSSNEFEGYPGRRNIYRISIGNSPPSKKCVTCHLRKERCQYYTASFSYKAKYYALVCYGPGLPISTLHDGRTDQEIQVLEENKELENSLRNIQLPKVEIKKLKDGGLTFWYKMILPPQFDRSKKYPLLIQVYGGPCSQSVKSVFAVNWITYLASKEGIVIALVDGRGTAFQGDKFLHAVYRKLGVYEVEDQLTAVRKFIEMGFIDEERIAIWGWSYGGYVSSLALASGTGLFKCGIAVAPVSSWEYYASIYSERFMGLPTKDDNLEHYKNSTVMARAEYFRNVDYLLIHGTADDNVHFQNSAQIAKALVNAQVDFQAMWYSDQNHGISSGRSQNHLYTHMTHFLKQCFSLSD
Method: In order to determine the inhibitory activity a FRET-based FAP protease activity assay was established.
25 µL of a 30 µM substrate solution, diluted in assay buffer, was added. […] Four parameter logistic (4PL) curve fitting and pIC50 calculations were performed using ActivityBase software.

[1] = target: T2, FAP-expressing human WI-38 fibroblasts (Homo sapiens, UniProt Q12884); assay: Competitive FACS binding assay (displacement of Cy5-labeled FAP inhibitor 3BP-2935); conditions: 3 nM Cy5-labeled 3BP-2935, 4°C, 1 hour
T2 construct: FAP-expressing human WI-38 fibroblasts (ECACC 90020107) were cultured in EMEM; host or cells: WI-38 human fibroblasts
T2 sequence (Q12884 1-760): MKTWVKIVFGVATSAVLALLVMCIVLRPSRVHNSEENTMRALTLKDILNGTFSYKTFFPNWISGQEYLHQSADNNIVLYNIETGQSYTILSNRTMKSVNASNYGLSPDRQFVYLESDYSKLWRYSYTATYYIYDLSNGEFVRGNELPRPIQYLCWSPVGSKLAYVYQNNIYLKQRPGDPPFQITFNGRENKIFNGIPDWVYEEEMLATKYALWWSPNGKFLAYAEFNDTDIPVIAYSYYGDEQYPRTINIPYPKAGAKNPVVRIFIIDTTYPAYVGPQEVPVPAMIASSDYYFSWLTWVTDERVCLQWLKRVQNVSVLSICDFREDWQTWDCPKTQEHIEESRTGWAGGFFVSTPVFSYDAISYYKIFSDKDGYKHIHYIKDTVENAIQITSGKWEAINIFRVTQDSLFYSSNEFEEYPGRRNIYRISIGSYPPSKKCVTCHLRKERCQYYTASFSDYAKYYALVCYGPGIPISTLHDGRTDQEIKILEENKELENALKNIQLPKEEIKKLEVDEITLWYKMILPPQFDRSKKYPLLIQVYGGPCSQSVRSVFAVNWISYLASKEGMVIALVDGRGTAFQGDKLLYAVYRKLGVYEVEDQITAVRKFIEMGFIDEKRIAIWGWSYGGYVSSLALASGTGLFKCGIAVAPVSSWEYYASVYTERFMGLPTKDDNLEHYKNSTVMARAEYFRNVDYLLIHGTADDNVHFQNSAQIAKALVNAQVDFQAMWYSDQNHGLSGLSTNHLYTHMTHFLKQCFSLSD

recombinant human PREP = target: T3, recombinant human PREP (Homo sapiens, UniProt P48147); assay: PREP protease activity assay; format: biochemical; conditions: 50 µM Z-GP-AMC substrate
T3 construct: purchased R&D systems 4308-SE
T3 sequence (P48147 1-710): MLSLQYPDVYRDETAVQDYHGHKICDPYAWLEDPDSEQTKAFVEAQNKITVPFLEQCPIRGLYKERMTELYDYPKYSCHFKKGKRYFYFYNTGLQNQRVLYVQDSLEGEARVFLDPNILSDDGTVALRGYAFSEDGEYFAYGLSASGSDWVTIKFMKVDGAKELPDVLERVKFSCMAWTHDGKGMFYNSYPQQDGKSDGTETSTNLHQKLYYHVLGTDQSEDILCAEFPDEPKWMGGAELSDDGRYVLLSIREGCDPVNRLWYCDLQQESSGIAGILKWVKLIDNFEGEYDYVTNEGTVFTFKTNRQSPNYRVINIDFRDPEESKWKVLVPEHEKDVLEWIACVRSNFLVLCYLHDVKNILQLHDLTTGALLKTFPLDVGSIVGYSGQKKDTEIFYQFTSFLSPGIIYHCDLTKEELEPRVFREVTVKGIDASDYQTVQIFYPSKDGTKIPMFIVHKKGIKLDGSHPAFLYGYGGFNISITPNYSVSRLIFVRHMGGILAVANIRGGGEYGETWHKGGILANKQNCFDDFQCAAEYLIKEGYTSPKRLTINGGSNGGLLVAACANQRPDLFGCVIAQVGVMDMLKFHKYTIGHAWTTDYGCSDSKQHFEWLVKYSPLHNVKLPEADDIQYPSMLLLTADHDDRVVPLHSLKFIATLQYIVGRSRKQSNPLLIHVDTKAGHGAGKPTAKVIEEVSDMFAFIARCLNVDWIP
Method: The PREP activity assay was performed using the FACS buffer (PBS including 1% FBS, Sigma-Aldrich, Cat# D8537). […] The DPP4 activity assay was performed in DPP assay buffer (25 mM Tris, pH 8.0).
Four parameter logistic (4PL) curve fitting and pIC50 calculations were performed using ActivityBase software.

Row | SMILES | pIC50 (mouseFAP) (Recombinant mouse FAP) | pIC50 (FACS) [1] | pIC50 (PREP) (recombinant human PREP)
1 | O=C(O)CN1CCN(CC(=O)O)CCN(CC(=O)N2CCN(CCCOc3ccc4nccc(C(=O)NCC(=O)N5C[C@@H](F)C[C@H]5C(=O)c5nc6ccccc6o5)c4c3)CC2)CCN(CC(=O)O)CC1 [drawing 358] | 8.5 | 8.6 | 7.8
2 | O=C(O)CN1CCN(CC(=O)O)CCN(CC(=O)N2CCN(CCNC(=O)c3ccc(-c4ccc5nccc(C(=O)NCC(=O)N6C[C@@H](F)C[C@H]6C(=O)c6nc7ccccc7o6)c5c4)cc3)CC2)CCN(CC(=O)O)CC1 [drawing 360] | 7.9 | 7.6 | 7.3
3 | O=C(O)CN1CCN(CC(=O)O)CCN(CC(=O)N2CCN(CCNC(=O)c3ccc(-c4ccc5nccc(C(=O)NCC(=O)N6CCC[C@H]6C(=O)c6nc7ccccc7o6)c5c4)cn3)CC2)CCN(CC(=O)O)CC1 [drawing 361] | 7.8 | 7.6 | 7.9
